The values below come from US8987268B2, “Pyrrolopyridazine JAK3 inhibitors and their use for the treatment of inflammatory and autoimmune diseases” (Bristol-Myers Squibb Company, priority 2011, dated 2015).

Assay [1] addresses GST-JAK1 enzyme (Homo sapiens (Human), UniProt P23458). The assay can be described thus: JAK1 Kinase Assay Protocol. The settings on record: read-out: LLE_JAK1 (IC50). The class given is biochemical. On the procedure: JAK1 Kinase Assay Protocol
(§1) The assay reactions were performed in U-bottom 384-well plates. […] The reaction was initiated by the combination of GST-JAK1 enzyme with substrates and test compounds. The reactions were incubated at room temperature for 3 hours and terminated by adding 60 μl of 35 mM EDTA to each sample. Each reaction mixture was analyzed on the Caliper LabChip 3000 (Caliper, Hopkinton, Mass.) by electrophoretic separation of the fluorescent substrate and phosphorylated product. […] Compounds were dissolved at 10 mM in dimethylsulfoxide (DMSO) and evaluated at eleven concentrations. IC50 values were derived by non-linear regression analysis.

Assay [2] deals with GST-JAK3 enzyme (Homo sapiens (Human), UniProt P52333). The assay is described as follows: JAK3 Kinase Assay Protocol (Caliper). The class given is biochemical. The settings on record: JAK3 kinase inhibition; read-out: LLE_JAK3_FB (IC50). On the procedure:
JAK3 Kinase Assay Protocol (Caliper)
as §1, with “GST-JAK3” for “GST-JAK1”

SMILES strings stand for the structures. Where two headings read alike, the source gives them in different places.

Chain of GST-JAK3 enzyme (P52333 whole entry): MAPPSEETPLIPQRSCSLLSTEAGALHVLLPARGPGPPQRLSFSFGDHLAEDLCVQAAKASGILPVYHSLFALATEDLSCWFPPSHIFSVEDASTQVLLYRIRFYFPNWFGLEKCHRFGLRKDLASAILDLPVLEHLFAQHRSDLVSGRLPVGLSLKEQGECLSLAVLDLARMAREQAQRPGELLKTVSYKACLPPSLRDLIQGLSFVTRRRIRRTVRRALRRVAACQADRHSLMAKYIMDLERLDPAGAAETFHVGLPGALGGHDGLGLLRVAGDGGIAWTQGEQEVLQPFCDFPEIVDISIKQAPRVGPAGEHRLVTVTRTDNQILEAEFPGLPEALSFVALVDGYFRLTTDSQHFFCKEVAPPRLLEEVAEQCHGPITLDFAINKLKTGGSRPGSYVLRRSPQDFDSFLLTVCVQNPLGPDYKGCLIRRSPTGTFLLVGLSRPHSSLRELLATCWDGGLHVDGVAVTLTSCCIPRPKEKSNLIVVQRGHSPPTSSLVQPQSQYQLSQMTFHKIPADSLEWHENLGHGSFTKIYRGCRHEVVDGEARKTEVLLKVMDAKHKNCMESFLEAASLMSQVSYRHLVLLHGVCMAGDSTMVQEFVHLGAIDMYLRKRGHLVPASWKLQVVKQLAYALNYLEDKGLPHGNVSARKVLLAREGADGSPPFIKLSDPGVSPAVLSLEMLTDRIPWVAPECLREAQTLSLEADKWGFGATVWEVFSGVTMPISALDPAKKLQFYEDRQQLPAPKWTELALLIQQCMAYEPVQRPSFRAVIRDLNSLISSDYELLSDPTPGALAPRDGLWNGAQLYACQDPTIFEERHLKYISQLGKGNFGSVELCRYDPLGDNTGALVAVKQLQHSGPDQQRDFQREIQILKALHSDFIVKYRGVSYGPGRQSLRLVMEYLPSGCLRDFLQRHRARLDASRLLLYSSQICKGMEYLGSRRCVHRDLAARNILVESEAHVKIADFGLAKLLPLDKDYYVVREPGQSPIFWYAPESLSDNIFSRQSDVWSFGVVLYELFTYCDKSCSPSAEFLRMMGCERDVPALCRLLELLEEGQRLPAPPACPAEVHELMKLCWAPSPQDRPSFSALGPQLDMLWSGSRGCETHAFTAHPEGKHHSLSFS
Chain of GST-JAK1 enzyme (P23458 whole entry): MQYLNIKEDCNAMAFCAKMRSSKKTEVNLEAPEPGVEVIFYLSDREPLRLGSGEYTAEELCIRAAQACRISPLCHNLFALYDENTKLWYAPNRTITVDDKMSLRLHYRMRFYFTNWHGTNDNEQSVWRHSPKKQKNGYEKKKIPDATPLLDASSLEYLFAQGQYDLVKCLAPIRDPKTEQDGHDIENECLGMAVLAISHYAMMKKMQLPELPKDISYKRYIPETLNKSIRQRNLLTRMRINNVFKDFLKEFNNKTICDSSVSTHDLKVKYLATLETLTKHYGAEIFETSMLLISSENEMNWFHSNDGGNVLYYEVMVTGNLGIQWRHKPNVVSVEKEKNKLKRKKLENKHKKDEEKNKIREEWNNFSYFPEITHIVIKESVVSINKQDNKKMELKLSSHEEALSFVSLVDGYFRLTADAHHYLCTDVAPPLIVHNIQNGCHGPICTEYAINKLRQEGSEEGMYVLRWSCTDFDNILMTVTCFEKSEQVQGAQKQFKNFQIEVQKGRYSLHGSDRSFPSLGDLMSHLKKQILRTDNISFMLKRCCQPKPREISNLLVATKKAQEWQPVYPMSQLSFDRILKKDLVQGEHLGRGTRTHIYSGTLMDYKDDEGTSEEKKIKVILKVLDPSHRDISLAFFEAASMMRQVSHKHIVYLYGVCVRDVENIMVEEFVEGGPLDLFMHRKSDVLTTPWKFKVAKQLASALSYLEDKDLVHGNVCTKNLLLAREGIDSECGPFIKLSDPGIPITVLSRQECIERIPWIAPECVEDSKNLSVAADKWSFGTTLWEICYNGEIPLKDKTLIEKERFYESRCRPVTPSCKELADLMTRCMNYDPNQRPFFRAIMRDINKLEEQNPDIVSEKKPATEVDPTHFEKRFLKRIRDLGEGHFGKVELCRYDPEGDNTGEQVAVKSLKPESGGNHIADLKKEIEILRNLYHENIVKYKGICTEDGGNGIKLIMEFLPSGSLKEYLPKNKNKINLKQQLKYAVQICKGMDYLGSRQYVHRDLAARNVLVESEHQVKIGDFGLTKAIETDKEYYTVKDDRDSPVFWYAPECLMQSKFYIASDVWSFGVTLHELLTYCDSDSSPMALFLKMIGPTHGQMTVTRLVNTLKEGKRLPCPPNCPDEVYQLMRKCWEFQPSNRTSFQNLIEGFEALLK

Broadly, the IC50 is the point on the concentration scale where inhibition reaches its midpoint. As for `C[C@@H]1[C@H]2CN(C(=O)CO)C[C@H]2C[C@H]1Nc1c(C(N)=O)cnn2cc(-c3ccc(C(=O)NC4CC4)cc3)cc12` [Example 70, 6-(4-(cyclopropylcarbamoyl)phenyl)-4-((3aS,4R,5R,6aS)-2-(2-hydroxyacetyl)-4-methyloctahydrocyclopenta[c]pyrrol-5-ylamino)pyrrolo[1,2-b]pyridazine-3-carboxamide], the results for the IC50 in assay [1] (JAK1 kinase inhibition) and in assay [2] were 0.3 nM and 0.4 nM, respectively.
Taken in the same sequence, the figures for `CC[C@H]1CN(c2ncc(C#N)s2)C[C@H]1Nc1c(C(N)=O)cnn2cc(-c3cnn(C)c3)cc12` [Example 182, 4-((3S,4S)-1-(5-cyanothiazol-2-yl)-4-ethylpyrrolin-3-ylamino)-6-(1-methyl-1H-pyrazol-4-yl)pyrrolo[1,2-b]pyridazine-3-carboxamide] were 0.8 nM and 0.3 nM.
As for `CO[C@H]1CN(C(=O)C2(C#N)CC2)C[C@H]1Nc1c(C(N)=O)cnn2cc(-c3ccc(F)cc3)cc12` [Example 305, 4-(((3R,4S)-1-(1-cyanocyclopropanecarbonyl)-4-methoxypyrrolidin-3-yl)amino)-6-(4-fluorophenyl)pyrrolo[1,2-b]pyridazine-3-carboxamide], the IC50 in assay [1] (JAK1 kinase inhibition) was 1.1 nM; in assay [2], 1.5 nM.
With `C[C@@H]1[C@H]2CN(C(=O)CF)C[C@H]2C[C@H]1Nc1c(C(N)=O)cnn2cc(-c3cnc(N)c(F)c3)cc12` [Example 69, 6-(6-amino-5-fluoropyridin-3-yl)-4-((3aS,4R,5R,6aS)-2-(2-fluoroacetyl)-4-methyloctahydrocyclopenta[c]pyrrol-5-ylamino)pyrrolo[1,2-b]pyridazine-3-carboxamide], the results for the IC50 in assay [1] and in assay [2] were 1.2 nM and 1.5 nM, respectively.
Take `C[C@H]1CN(c2ccc(C#N)cn2)C[C@H]1Nc1c(C(N)=O)cnn2cc(-c3cnn(CC(=O)N4CCC(F)(F)C4)c3)cc12` [Example 185, 4-(((3S,4S)-1-(5-cyanopyridin-2-yl)-4-methylpyrrolidin-3-yl)amino)-6-(1-(2-(3,3-difluoropyrrolidin-1-yl)-2-oxoethyl)-1H-pyrazol-4-yl)pyrrolo[1,2-b]pyridazine-3-carboxamide]: the IC50 in assay [1] (JAK1 kinase inhibition) came out at 0.3 nM; in assay [2], 0.6 nM.
With `CC[C@H]1CN(C(=O)C2(C#N)CC2)C[C@H]1Nc1c(C(N)=O)cnn2cc(-c3ccc(C)nc3)cc12` [Example 221, 4-((3S,4S)-1-(1-cyanocyclopropanecarbonyl)-4-ethylpyrrolidin-3-ylamino)-6-(6-methylpyridin-3-yl)pyrrolo[1,2-b]pyridazine-3-carboxamide], the IC50 turned out to be 1 nM in assay [1] (JAK1 kinase inhibition) and 1.4 nM in assay [2].
For `CNC(=O)c1cccc(-c2cc3c(N[C@@H]4CN(C(=O)C5(C#N)CC5)C[C@@H]4OC)c(C(N)=O)cnn3c2)c1` [Example 303, 4-(((3R,4S)-1-(1-cyanocyclopropanecarbonyl)-4-methoxypyrrolidin-3-yl)amino)-6-(3-(methylcarbamoyl)phenyl)pyrrolo[1,2-b]pyridazine-3-carboxamide], the results for the IC50 in assay [1] (JAK1 kinase inhibition) and in assay [2] were 0.5 nM and 1.5 nM, respectively.
As to `CO[C@H]1CN(C(=O)C2(C#N)CC2)C[C@H]1Nc1c(C(N)=O)cnn2cc(-c3ccc(C#N)cc3)cc12` [Example 308, 4-(((3R,4S)-1-(1-cyanocyclopropanecarbonyl)-4-methoxypyrrolidin-3-yl)amino)-6-(4-cyanophenyl)pyrrolo[1,2-b]pyridazine-3-carboxamide], the IC50 stood at 1.5 nM in assay [1] (JAK1 kinase inhibition) and 6.6 nM in assay [2].
In the case of `CC[C@H]1CN(C(=O)C2(C#N)CC2)C[C@H]1Nc1c(C(N)=O)cnn2cc(-c3cc(C)no3)cc12` [Example 292, 4-(((3S,4S)-1-(1-cyanocyclopropanecarbonyl)-4-ethylpyrrolidin-3-yl)amino)-6-(3-methylisoxazol-5-yl)pyrrolo[1,2-b]pyridazine-3-carboxamide], the IC50 in assay [1] (JAK1 kinase inhibition) stood at 0.7 nM; in assay [2], 0.5 nM.
For `Cn1nccc1-c1cc2c(NC3CCOCC3)c(C(N)=O)cnn2c1` [Example 30, 6-(1-methyl-1H-pyrazol-5-yl)-4-(tetrahydro-2H-pyran-4-ylamino)pyrrolo[1,2-b]pyridazine-3-carboxamide], the IC50 was determined as 190 nM in assay [1] (JAK1 kinase inhibition) and 110 nM in assay [2].
For the compound `CC[C@@H]1CN(C(=O)[C@@H](O)CC)CC[C@H]1Nc1c(C(N)=O)cnn2cc(-c3cnn(C)c3)cc12` [Example 127, 4-(((3R,4R)-3-ethyl-1-((S)-2-hydroxybutanoyl)piperidin-4-yl)amino)-6-(1-methyl-1H-pyrazol-4-yl)pyrrolo[1,2-b]pyridazine-3-carboxamide], the figures for the half-maximal inhibitory concentration (IC50) in assay [1] (JAK1 kinase inhibition) and in assay [2] were 7.6 nM and 5.6 nM, respectively.
The corresponding values for `COc1ccc(-c2cc3c(N[C@@H]4CCN(C(=O)C(N)=O)CC4(C)C)c(C(N)=O)cnn3c2)cn1` [Example 55, (R)-4-(1-(2-amino-2-oxoacetyl)-3,3-dimethylpiperidin-4-ylamino)-6-(6-methoxypyridin-3-yl)pyrrolo[1,2-b]pyridazine-3-carboxamide] are 4.4 nM and 0.9 nM.
Taken in the same sequence, the figures for `CNC(=O)c1ccc(-c2cc3c(N[C@@H]4C[C@@H]5CN(C(=O)C(C)(C)O)C[C@@H]5[C@H]4C)c(C(N)=O)cnn3c2)cn1` [Example 63, 4-(((3aS,4R,5R,6aS)-2-(2-hydroxy-2-methylpropanoyl)-4-methyloctahydrocyclopenta[c]pyrrol-5-yl)amino)-6-(6-(methylcarbamoyl)-3-pyridinyl)pyrrolo[1,2-b]pyridazine-3-carboxamide] were 0.4 nM and 0.7 nM.
The corresponding values for `NC(=O)c1cnn2cc(-c3ccccc3F)cc2c1NC1CCOCC1` [Example 34, 6-(2-fluorophenyl)-4-(tetrahydro-2H-pyran-4-ylamino)pyrrolo[1,2-b]pyridazine-3-carboxamide] are 80 nM and 40 nM.
As for `C[C@@H]1[C@H]2CN(C(=O)C(C)(C)O)C[C@H]2C[C@H]1Nc1c(C(N)=O)cnn2cc(-c3cnn(C)c3)cc12` [Example 83, 4-((3aS,4R,5R,6aS)-2-(2-hydroxy-2-methylpropanoyl)-4-methyloctahydrocyclopenta[c]pyrrol-5-ylamino)-6-(1-methyl-1H-pyrazol-4-yl)pyrrolo[1,2-b]pyridazine-3-carboxamide], the IC50 in assay [1] (JAK1 kinase inhibition) turned out to be 1.4 nM; in assay [2] it was 1.5 nM.
As for `CCNC(=O)c1ccc(-c2cc3c(N[C@@H]4CN(C(=O)C(C)(C)C#N)C[C@@H]4CC)c(C(N)=O)cnn3c2)cn1` [Example 252, 4-((3S,4S)-1-(2-cyano-2-methylpropanoyl)-4-ethylpyrrolidin-3-ylamino)-6-(6-(ethylcarbamoyl)pyridin-3-yl)pyrrolo[1,2-b]pyridazine-3-carboxamide], the IC50 in assay [1] (JAK1 kinase inhibition) was determined as 4.3 nM; in assay [2], 8.6 nM.
Take `CNC(=O)c1ccc(-c2cc3c(N[C@@H]4CN(C(=O)OC)C[C@@H]4C)c(C(N)=O)cnn3c2)cn1` [Example 213, (3S,4S)-methyl 3-((3-carbamoyl-6-(6-(methylcarbamoyl)pyridin-3-yl)pyrrolo[1,2-b]pyridazin-4-yl)amino)-4-methylpyrrolidine-1-carboxylate]: the IC50 in assay [1] (JAK1 kinase inhibition) came out at 4.7 nM; in assay [2], 7.5 nM.
The corresponding values for `C[C@H]1CN(C(=O)CC#N)C[C@H]1Nc1c(C(N)=O)cnn2cc(-c3ccnc(F)c3)cc12` [Example 201, 4-(((3S,4S)-1-(2-cyanoacetyl)-4-methylpyrrolidin-3-yl)amino)-6-(2-fluoropyridin-4-yl)pyrrolo[1,2-b]pyridazine-3-carboxamide] are 0.5 nM and 1.4 nM.
The corresponding values for `C[C@@H]1[C@H]2CN(S(C)(=O)=O)C[C@H]2C[C@H]1Nc1c(C(N)=O)cnn2cc(-c3cnc(N)nc3)cc12` [Example 59, 6-(2-amino-5-pyrimidinyl)-4-(((3aS,4R,5R,6aS)-4-methyl-2-(methylsulfonyl)octahydrocyclopenta[c]pyrrol-5-yl)amino)pyrrolo[1,2-b]pyridazine-3-carboxamide] are 0.2 nM and 0.6 nM.
Consider `C[C@@H]1[C@H]2CN(S(C)(=O)=O)C[C@H]2C[C@H]1Nc1c(C(N)=O)cnn2cc(-c3nnn(C)n3)cc12` [Example 67, 4-(((3aS,4R,5R,6aS)-4-methyl-2-(methylsulfonyl)octahydrocyclopenta[c]pyrrol-5-yl)amino)-6-(2-methyl-2H-tetrazol-5-yl)pyrrolo[1,2-b]pyridazine-3-carboxamide], for which the values for the half-inhibitory concentration (IC50) in assay [1] (JAK1 kinase inhibition) and in assay [2] were 1.3 nM and 0.4 nM, respectively.
